Measurements reported in patent US10988449B2, “Isoxazole derivatives as nuclear receptor agonists and uses thereof” (IL DONG PHARMACEUTICAL CO., LTD., priority 2017, dated 2021).
Like-named read-outs stand apart in the source and are kept apart here.

What was measured:
[1] = multiple rodent models; cited from earlier work
[2] = system: hepatic stellate cells (HSC); settings: cultured HSCs; cited from earlier work
[3] = in vivo; cited from earlier work
[4] = molecular target: T1, human FXR (Homo sapiens, UniProt Q96RI1); assay: FXR reporter assay (cellular FXR activities); format: cell-based; settings: for EC50: FXR reporter cells, 24 hours incubation, luciferase, read-out: Reporter Cell EC50; for Emax: read-out: Emax (%) (GW4064 Emax = 100%)
T1 construct: expressed in transfected cells
T1 sequence (Q96RI1 1-486): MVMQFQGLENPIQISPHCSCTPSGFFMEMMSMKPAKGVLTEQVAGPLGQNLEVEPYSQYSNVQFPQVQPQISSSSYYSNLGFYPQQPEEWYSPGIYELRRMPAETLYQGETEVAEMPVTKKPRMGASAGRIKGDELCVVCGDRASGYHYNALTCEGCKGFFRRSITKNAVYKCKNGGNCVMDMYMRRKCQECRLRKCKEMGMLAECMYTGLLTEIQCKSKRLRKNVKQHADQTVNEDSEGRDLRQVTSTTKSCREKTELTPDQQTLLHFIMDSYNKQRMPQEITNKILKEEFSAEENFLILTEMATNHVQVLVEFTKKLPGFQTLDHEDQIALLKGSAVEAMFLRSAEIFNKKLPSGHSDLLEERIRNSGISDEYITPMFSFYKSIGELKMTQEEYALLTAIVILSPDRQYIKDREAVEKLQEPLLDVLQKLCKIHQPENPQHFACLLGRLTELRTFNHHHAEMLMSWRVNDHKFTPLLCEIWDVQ
How it was run: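 EC50 derived from luciferase read-out after 24 h (37 °C, 5% CO2) treatment of human-FXR-expressing reporter cells with serially diluted compound.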

[5] = Mouse pharmacokinetics; format: in vivo; design: concentration or dose not given beside the values; settings: Balb/c male mice, blood samples 15 to 1140 min, LC-MS/MS
Protocol: To evaluate the pharmacokinetics test, the invented 18 compounds of examples were determined as follows. Blood samples are collected at 15, 30, 60, 120, 240, 480, 1140 min. Quantification is by using a LC-MS/MS method specific to the selected compound. Pharmacokinetics parameters are calculated using WinNonLinnon compartmental analysis software.

[6] = db/db, ob/ob and KK-A(y)mice; cited from earlier work

Row | Structure (SMILES) | EC50 [4] [nM] | Emax [4] [%] | AUC ([5]; mouse, read-out: AUC) [ng·h/mL] | further results
1 | CC[C@H]1[C@@H](O)[C@@H]2[C@H](CC[C@]3(C)[C@@H]([C@H](C)CCC(=O)O)CC[C@@H]23)[C@@]2(C)CC[C@@H](O)C[C@@H]12 [Compound 6EtCDCA, 6-ethyl-chenodeoxycholic acid] |  |  |  | hepatic fibrosis [1]: promote resolution of hepatic fibrosis; expression of fibrotic markers such as α-smooth muscle actin and α1(I) collagen [2]: decreased expression of fibrotic markers; impairment of bile flow [3]: fully reverse the impairment of bile flow; liver cell injury caused by the cytotoxic lithocholic acid [3]: protect the hepatocytes against liver cell injury
2 | O=C(O)c1cc(F)cc(C#Cc2ccc(OCc3c(-c4c(Cl)cccc4Cl)noc3C3CC3)cc2Cl)c1 [Compound I-30, 3-((2-chloro-4-((5-cyclopropyl-3-(2,6-dichlorophenyl)isoxazol-4-yl)methoxy)phenyl)ethynyl)-5-fluorobenzoic acid] | 20 to 60 | 92 | 680 | 
3 | O=C(O)c1ccc(C#Cc2ccc(OCc3c(-c4c(Cl)cccc4Cl)noc3C3CC3)cc2Cl)cc1 [Compound I-16, 4-((2-chloro-4-((5-cyclopropyl-3-(2,6-dichlorophenyl)isoxazol-4-yl)methoxy)phenyl)ethynyl)benzoic acid] | 60 to 200 | 91 | 2250 | 
4 | O=C(O)c1cc(C#Cc2ccc(OCc3c(-c4c(Cl)cccc4Cl)noc3C3CC3)cc2Cl)c2cn[nH]c2c1 [Compound I-89, 4-((2-chloro-((5-cyclopropyl-3-(2,6-dichlorophenyl)isoxazol-4-yl)methoxy)phenyl)ethynyl)-1H-indazole-6-carboxylic acid] | 20 to 60 | 88 | 271 | 
5 | CC(C)c1onc(-c2c(Cl)cccc2Cl)c1COc1ccc(/C=C/c2cccc(C(=O)O)c2)c(Cl)c1 [WO2000037077 GW4064] |  |  |  | AUC [5]: 253.31 ng·h/mL; insulin sensitivity [6]: improved insulin sensitivity; plasma glucose levels [6]: reduced plasma glucose levels
6 | O=C(O)c1cccc(C#Cc2ccc(OCc3c(-c4c(Cl)cccc4Cl)noc3C3CC3)cc2Cl)c1 [Compound I-15, 3-((2-chloro-4-((5-cyclopropyl-3-(2,6-dichlorophenyl)isoxazol-4-yl)methoxy)phenyl)ethynyl)benzoic acid] | 60 to 200 | 82 | 521 | 
7 | CN(C)c1cc(C#Cc2ccc(OCc3c(-c4c(Cl)cccc4Cl)noc3C3CC3)cc2Cl)cc(C(=O)O)c1 [Compound I-21, 3-((2-chloro-4-((5-cyclopropyl-3-(2,6-dichlorophenyl)isoxazol-4-yl)methoxy)phenyl)ethynyl)-5-(dimethylamino)benzoic acid] | ≤ 20 | 92 | 6140 | 
8 | O=C(O)c1cc(C#Cc2ccc(OCc3c(-c4c(Cl)cccc4Cl)noc3C3CC3)cc2Cl)c2cc[nH]c2c1 [Compound I-91, 4-((2-chloro-4-((5-cyclopropyl-3-(2,6-dichlorophenyl)isoxazol-4-yl)methoxy)phenyl)ethynyl)-1H-indole-6-carboxylic acid] | ≤ 20 | > 100 | 544 | 
